In PubChem BioAssay AID1549 (Sanford-Burnham Center for Chemical Genomics, 2009):
Active and inactive are the calls of the source. The rule behind the calls is not given here.

Biological target: Influenza A virus M2 proton channel (A/TW/4845/1999 H1N1)
Assay: M2 proton channel binding, NMR based, influenza A virus H1N1 strain (AID 1549)
Conditions: NMR binding screen, M2 protein

Structure (SMILES) | Kd
CCOC(=O)CNC(=O)CSc1nnc(C)c(=O)[nH]1 | > 4 mM (inactive)
CCOC(=O)c1nc2ccccc2c(=O)n1N | > 4 mM (inactive)
Cc1ccc(C(C)C)cc2c(C)ccc1-2 | > 4 mM (inactive)
C=C(C)[C@H]1COc2cc3oc(=O)ccc3cc2O1 | > 4 mM (inactive)
C=CCSCC=C | > 4 mM (inactive)
CCOc1ccc(C(=O)c2ccncc2)cc1 | > 4 mM (inactive)
CC(NC(=O)c1ccco1)C1CCCO1 (configuration not stated) | > 4 mM (inactive)
Cc1ccc2cc(C(=O)O)ccc2n1 | > 4 mM (inactive)
CC(C)NC(=O)c1nc2ccccc2s1 | > 4 mM (inactive)
O=C(NCN1CCOCC1)c1cccnc1 | > 4 mM (inactive)
CN(C)N1C(=O)C2C3C=CC(O3)C2C1=O (configuration not stated) | > 4 mM (inactive)
Cc1ccnc(NS(=O)(=O)c2cccs2)c1 | > 4 mM (inactive)
O=c1[nH]c2sc3c(c2c2nncn12)CCCC3 | > 4 mM (inactive)
C#CCCCCCCCCCCCc1ccco1 | > 4 mM (inactive)
OCC1COc2ccccc2C1 (configuration not stated) | > 4 mM (inactive)
O=C(Nc1cccc2cccnc12)c1cccnc1 | > 4 mM (inactive)
COC(=O)c1cc(C)on1 | > 4 mM (inactive)
O=C(O)Cc1csc(-c2ccccc2)n1 | > 4 mM (inactive)
O=S1(=O)CCC(Nc2ccccc2)C1 (configuration not stated) | > 4 mM (inactive)
Cc1occc1C(=O)Nc1cc(C(C)(C)C)on1 | > 4 mM (inactive)
O=C1NC(=O)C(Cc2ccccc2)C(=O)N1 | > 4 mM (inactive)
Cc1ccc(-c2nc(N)n(C(=O)c3cccnc3)n2)cc1 | > 4 mM (inactive)
COc1cccc(N2CCN(C(=O)c3cccnc3)CC2)c1 | > 4 mM (inactive)
NC(=O)c1cc(N)ccc1N1CCCCC1 | > 4 mM (inactive)
CC(=O)O[C@H]1CC[C@@]2(C)C(CC[C@]3(C)C2CC=C2C4CC(C)(C)CC[C@]4(C)CC[C@]23C)C1(C)C (some centres not stated) | > 4 mM (inactive)

Structure (SMILES) | Kd
Oc1ccccc1N=Cc1cccnc1 | > 4 mM (inactive)
CC[C@@]1(O)C(=O)OCc2c1cc1n(c2=O)Cc2cc3ccccc3nc2-1 | > 4 mM (inactive)
CC1(C)CN=C(Nc2nc3ccccc3s2)S1 | > 4 mM (inactive)
CNS(=O)(=O)c1cccs1 | > 4 mM (inactive)
Cc1cccc(-n2c(N)cc(=O)[nH]c2=S)c1 | > 4 mM (inactive)
Cn1nnc2cc(C(=O)N3CCSCC3)ccc21 | > 4 mM (inactive)
N[C@@H](Cc1ccc(O)c(O)c1)C(=O)O | > 4 mM (inactive)
CCc1c(C)n([O-])c2c([n+]1=O)CCC2 | > 4 mM (inactive)
NC(=O)CC1NC(=O)c2ccccc21 (configuration not stated) | > 4 mM (inactive)
O=C(c1ccc(F)cc1)C1CCNCC1 | > 4 mM (inactive)
O=C(Nc1ccon1)c1cccc(C(F)(F)F)c1 | > 4 mM (inactive)
Cc1nc(-c2cnccn2)sc1C(=O)O | > 4 mM (inactive)
CC1(C)C2CC[C@]3(C)C(C(=O)C=C4[C@H]5C[C@@](C)(C(=O)O)CC[C@]5(C)CC[C@]43C)[C@@]2(C)CC[C@@H]1O (some centres not stated) | > 4 mM (inactive)
S=C(NCc1ccco1)NN1CCOCC1 | > 4 mM (inactive)
CCNC(CC(=O)Nc1ccc(O)cc1)C(=O)O (configuration not stated) | > 4 mM (inactive)
O=C(Nc1ccccc1)Nc1ccccc1 | > 4 mM (inactive)
O=C(O)CNCC(O)Cn1c2ccccc2c2ccccc21 (configuration not stated) | > 4 mM (inactive)
CNC(=S)Nc1ncn(Cc2cccc(F)c2)n1 | > 4 mM (inactive)
O=C(c1nc2ccccc2s1)N1CCSCC1 | > 4 mM (inactive)
NC1=NC(=O)/C(=C\c2ccccc2)S1 | > 4 mM (inactive)
CC(=O)OC(C)(C)[C@@H]1Cc2cc3ccc(=O)oc3cc2O1 | > 4 mM (inactive)
C=C[C@H]1CN2CC[C@H]1C[C@H]2[C@H](O)c1ccnc2ccccc12 | > 4 mM (inactive)
CC(=O)Oc1cc(-c2coc3cc(OC(C)=O)c(OC(C)=O)c(OC(C)=O)c3c2=O)cc(OC(C)=O)c1OC(C)=O | > 4 mM (inactive)
O=C(CSc1cccc2cccnc12)N1CCCC1 | > 4 mM (inactive)
O=C(O)c1cccc(O)c1O | > 4 mM (inactive)

Structure (SMILES) | Kd
C[C@]12C=CC(=O)C=C1CCC1C2CC[C@]2(C)C(=O)CCC12 (some centres not stated) | > 4 mM (inactive)
CC(=O)Nc1sc(C)c(C)c1C(N)=O | > 4 mM (inactive)
CC(=O)O[C@H]1CC[C@]2(C)C3CC[C@@]4(C)C(CC5O[C@@]6(CCC(C)CO6)[C@@H](C)C54)C3CC[C@@H]2C1 (some centres not stated) | > 4 mM (inactive)
O=C1N/C(=N\c2ccccn2)SC1Cc1ccccc1 (configuration not stated) | > 4 mM (inactive)
CC(=O)N1CN(C(C)=O)CN(C(C)=O)C1 | > 4 mM (inactive)
COc1ccc(-c2nnsc2N)cc1 | > 4 mM (inactive)
Cc1csc2nc3ccccc3c(=O)n12 | > 4 mM (inactive)
O=[n+]1c2c(n([O-])c3ccccc31)CCCC2 | > 4 mM (inactive)
O=C1NCCCC1C(=O)N/N=C/c1ccccc1 (configuration not stated) | > 4 mM (inactive)
COc1ccc(CC(=O)c2ccc(O)cc2O)cc1 | > 4 mM (inactive)
C=C(C)[C@H]1CC=C(C(=O)O)CC1 | > 4 mM (inactive)
COc1ccc(C(=O)NCC(=O)O)cc1 | > 4 mM (inactive)
CSc1nc2nc(C)cc(=O)n2[nH]1 | > 4 mM (inactive)
O=S(=O)(Nc1ccc2c(c1)OCCO2)c1cccs1 | > 4 mM (inactive)
CN(C)S(=O)(=O)c1ccc(N2CCOCC2)nc1 | > 4 mM (inactive)
Cc1cc(C(=O)N2CCC3(CC2)OCCO3)cs1 | > 4 mM (inactive)
CCN(CC)S(=O)(=O)c1cccc2nsnc12 | > 4 mM (inactive)
NC(=O)CSc1ccc2nnc(-c3ccccc3)n2n1 | > 4 mM (inactive)
COc1ccccc1-c1n[nH]c(=O)o1 | > 4 mM (inactive)
COc1ccc2[nH]cc(CN(C)C)c2c1 | > 4 mM (inactive)
c1ccc(CCc2nc(-c3ccccn3)no2)cc1 | > 4 mM (inactive)
O=C1CSC(=Nc2ccc(Cl)cc2)N1 | > 4 mM (inactive)
Cc1noc(C)c1C(=O)N1CCC2(CC1)OCCO2 | > 4 mM (inactive)
c1ccc(SCc2nc(-c3cccnc3)no2)cc1 | > 4 mM (inactive)
Cc1cc(NC(=O)CSc2nncn2C)no1 | > 4 mM (inactive)

Structure (SMILES) | Kd
CC(=O)Nc1ccc(S(=O)(=O)N2CCN=C2C)cc1 | > 4 mM (inactive)
O=C1C=CC2=C3c4cc(O)c(O)cc4CC3(O)COC2=C1O (configuration not stated) | > 4 mM (inactive)
O=C(O)c1ccc(NCc2cccnc2)cc1 | > 4 mM (inactive)
Cc1nc(-c2ccccc2)ncc1C(=O)O | > 4 mM (inactive)
NC1CS(=O)(=O)CC1O (configuration not stated) | > 4 mM (inactive)
NC(=O)CSc1nc2ccccc2c(=O)[nH]1 | > 4 mM (inactive)
O=C(NCc1cccs1)c1ccc2c(c1)OCCO2 | > 4 mM (inactive)
O=C(O[C@@H]1Cc2c(O)cc(O)cc2O[C@@H]1c1cc(O)c(O)c(O)c1)c1cc(O)c(O)c(O)c1 | > 4 mM (inactive)
Cc1cc(=O)n2[nH]c(N)nc2n1 | > 4 mM (inactive)
Cc1cc(NC(=O)c2cccc(S(C)(=O)=O)c2)no1 | > 4 mM (inactive)
COc1cccc(O)c1O | > 4 mM (inactive)
COc1ccccc1C(=O)NC1CCN(C)CC1 | > 4 mM (inactive)
c1ccc(-c2noc(-c3cccnc3)n2)nc1 | > 4 mM (inactive)
CNC(=O)c1cc2cccc(OC)c2oc1=O | > 4 mM (inactive)
Cn1c(=O)c2c(n(C)c1=O)=NC1(CCCCC1)N=2 | > 4 mM (inactive)
O=S1(=O)CCC(NC(=S)N2CCOCC2)C1 (configuration not stated) | > 4 mM (inactive)
COc1ccccc1NC(=O)C1CCCCC1 | > 4 mM (inactive)
O=C(O)C1=Cc2ccccc2OC1 | > 4 mM (inactive)
COC(=O)Cc1cc(=O)n(-c2ccccc2)[nH]1 | > 4 mM (inactive)
O=C1CN(C(=O)c2ccccc2)c2ccccc2N1 | > 4 mM (inactive)
Nc1ncnc(Nc2ccccc2C(F)(F)F)n1 | > 4 mM (inactive)
C=CCc1ccc(OC(=O)c2ccccc2)c(OC)c1 | > 4 mM (inactive)
CC(C)=CC1C(CO)C1(C)C (configuration not stated) | > 4 mM (inactive)
COc1ccc(-c2coc3cc(O)ccc3c2=O)cc1 | > 4 mM (inactive)
CC(=O)Nc1ccc(C)cc1NC(C)=O | > 4 mM (inactive)

Structure (SMILES) | Kd
Cn1c(=O)[nH]c2nc[nH]c2c1=O | > 4 mM (inactive)
C=CCc1ccc(O)c(OC)c1 | > 4 mM (inactive)
C=CCCCCCCCCCCCC(O)CC(O)COC(C)=O (configuration not stated) (tested in a mixture with another compound) | > 4 mM (inactive)
COc1ccc(C(C)=O)c(O)c1 | > 4 mM (inactive)
S=c1[nH]ncn1-c1ccccc1 | > 4 mM (inactive)
Cc1cn2c(-c3cccnc3)nnc2s1 | > 4 mM (inactive)
NC(=O)NCCCC(N)C(=O)O (configuration not stated) | > 4 mM (inactive)
CC1CN=C(Nc2ccccc2)S1 (configuration not stated) | > 4 mM (inactive)
CNC(=O)c1ccc([N+](=O)[O-])cc1Cl | > 4 mM (inactive)
NCc1ccc(-c2cccs2)cc1 | > 4 mM (inactive)
OC1CCN(C(=S)NC2CC2)CC1 | > 4 mM (inactive)
O=C(O)c1cccnc1 | > 4 mM (inactive)
CC(=O)NC(c1ccccc1)c1cccnc1 (configuration not stated) | > 4 mM (inactive)
COC(=O)C1=C(C)N(c2cccc(C(C)=O)c2)C(=O)C1 | > 4 mM (inactive)
O=c1[nH]cnc2nn(-c3ccccc3)nc12 | > 4 mM (inactive)
CC(C)=CCC/C(C)=C/CC/C(C)=C/CC/C(C)=C/CC/C(C)=C/CC/C(C)=C/CC/C(C)=C/CC/C(C)=C/CC/C(C)=C/CO | > 4 mM (inactive)
Cc1c(C)c2c(c(C)c1O)CCC(C)(CCCC(C)CCCC(C)CCCC(C)C)O2 (configuration not stated) | > 4 mM (inactive)
CC1(C)CC2(C)N(N)C(=O)CN2C(=S)N1 (configuration not stated) | > 4 mM (inactive)
O=C1c2ccccc2-c2ncnc3cccc1c23 | > 4 mM (inactive)
O=C(O)c1ccc(CSc2ncn[nH]2)cc1 | > 4 mM (inactive)
Cc1cc(C)c(-c2cc(C(F)(F)F)no2)c(=O)[nH]1 | > 4 mM (inactive)
COc1cc(O)ccc1C(C)=O | > 4 mM (inactive)
